Assay results taken from PMC2820511 (Journal of medicinal chemistry, 2010).

Tests used:
[1] = tested on: MtMetAP1c-complemented E. coli cells; assay: Inhibition of MtMetAP1c-complemented E. coli cell growth; details: highest concentration (1 mM) tested
MtMetAP1c = MtMetAP1c (Mycobacterium tuberculosis, UniProt P9WK19); assay: Inhibition of purified MtMetAP1c apoenzyme activated by divalent metals; assay type: biochemical; details: apoenzyme activated by Co(II), Ni(II), Mn(II) or Fe(II)
Chain of MtMetAP1c (P9WK19 whole entry, looked up): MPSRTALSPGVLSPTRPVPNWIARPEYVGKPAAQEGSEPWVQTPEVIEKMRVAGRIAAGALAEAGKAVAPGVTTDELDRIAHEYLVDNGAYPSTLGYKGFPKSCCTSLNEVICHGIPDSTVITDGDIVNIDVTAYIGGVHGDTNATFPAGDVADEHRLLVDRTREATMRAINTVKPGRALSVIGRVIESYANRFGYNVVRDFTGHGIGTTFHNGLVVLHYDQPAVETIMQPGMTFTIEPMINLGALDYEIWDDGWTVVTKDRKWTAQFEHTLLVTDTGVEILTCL

Row | SMILES | growth inhibition at the highest concentration tested [1] | metalloform selectivity of inhibition of purified MtMetAP1c (MtMetAP1c)
1 | O=C(O)c1ccc(-c2cc(Cl)ccc2Cl)o1 [compound 3] | no inhibition | selective for the Mn(II) form
2 | Nc1nnc(SCc2ccc(F)cc2)[nH]1 [compound 5] | no inhibition | 
3 | Cc1ccsc1-c1ccc(O)c(O)c1 [compound 2] |  | selective for the Fe(II) form
4 | Cc1nc(-c2ccc(O)c(O)c2)cs1 [compound 1] |  | selective for the Fe(II) form
5 | Cc1ccc(CSc2nnc(N)[nH]2)cc1 [compound 6] | no inhibition | 
